Test system: MCF-7 breast cancer cells
Assay: Microarray gene expression analysis (Agilent whole human genome 4 x 44K; compound vs DMSO, LIMMA log2 fold change)
Type: cell-based
Settings: Apoptosis genes

Oc1cccc(-c2nc(N3CCOCC3)c3oc4ncccc4c3n2)c1 [PI-103]
ITGB3BP log2FC (Gene 23421): 0.693 | RYBP log2FC (Gene 23429): 0.361 | HEY2 log2FC (Gene 23493): -0.116 | SCRIB log2FC (Gene 23513): 0.029 | CLCF1 log2FC (Gene 23529): -0.682 | PRAME log2FC (Gene 23532): -0.450 | DDAH2 log2FC (Gene 23564): 0.378 | ZNF346 log2FC (Gene 23567): -0.012 | CASP14 log2FC (Gene 23581): -0.041 | NUP62 log2FC (Gene 23636): -0.627 | PPP1R15A log2FC (Gene 23645): 0.513 | AIPL1 log2FC (Gene 23746): 0.177 | FKBP8 log2FC (Gene 23770): 0.044 | BCL2L13 log2FC (Gene 23786): 0.110 | MTCH1 log2FC (Gene 23787): 0.149 | NGEF log2FC (Gene 25791): 0.857 | SPDEF log2FC (Gene 25803): -0.186 | TNFAIP8 log2FC (Gene 25816): 0.677 | PRDX5 log2FC (Gene 25824): 0.047 | BRMS1 log2FC (Gene 25855): -0.476 | SIN3A log2FC (Gene 25942): 0.891 | HIGD1A log2FC (Gene 25994): -0.106 | SERBP1 log2FC (Gene 26135): 0.167 | NOC2L log2FC (Gene 26155): -0.855 | TIAM2 log2FC (Gene 26230): 0.365 | AATF log2FC (Gene 26574): -0.415 | GREM1 log2FC (Gene 26585): -0.405 | CKAP2 log2FC (Gene 26586): 0.629 | CYFIP2 log2FC (Gene 26999): 0.053 | NGFRAP1 log2FC (Gene 27018): 0.277 | ANKRD1 log2FC (Gene 27063): 0.350 | GHITM log2FC (Gene 27069): 0.386 | BBC3 log2FC (Gene 27113): 2.072 | CIDEB log2FC (Gene 27141): -0.033 | GLS2 log2FC (Gene 27165): 0.410 | TNFRSF21 log2FC (Gene 27242): -1.071 | PDCD4 log2FC (Gene 27250): 1.703 | KLHL20 log2FC (Gene 27252): 0.115 | CECR2 log2FC (Gene 27443): -0.150 | DBNL log2FC (Gene 28988): -0.248 | HIPK2 log2FC (Gene 28996): -0.140 | SAP30BP log2FC (Gene 29115): -0.468 | LGALS13 log2FC (Gene 29124): -0.059 | CARD10 log2FC (Gene 29775): -0.449 | SENP1 log2FC (Gene 29843): 0.227 | TFPT log2FC (Gene 29844): -0.472 | PNMA3 log2FC (Gene 29944): 0.668 | UBQLN1 log2FC (Gene 29979): -0.069 | ERO1L log2FC (Gene 30001): 0.078 | SH3KBP1 log2FC (Gene 30011): 0.268 | KCNIP3 log2FC (Gene 30818): 0.232 | RRM2B log2FC (Gene 50484): 0.526 | G0S2 log2FC (Gene 50486): -0.054 | NOX4 log2FC (Gene 50507): 0.041 | CHST11 log2FC (Gene 50515): -0.946 | ARHGEF4 log2FC (Gene 50649): 0.008 | ARHGEF3 log2FC (Gene 50650): 0.506 | GLRX2 log2FC (Gene 51022): -0.261 | RPS27L log2FC (Gene 51065): 0.277 | APIP log2FC (Gene 51074): 0.039 | NDUFA13 log2FC (Gene 51079): -0.041 | GAL log2FC (Gene 51083): -0.333 | SH3GLB1 log2FC (Gene 51100): 0.561 | APH1A log2FC (Gene 51107): -0.371 | UTP11L log2FC (Gene 51118): -0.906 | IER3IP1 log2FC (Gene 51124): 0.357 | ANGPTL4 log2FC (Gene 51129): -0.819 | ING4 log2FC (Gene 51147): 1.595 | LEF1 log2FC (Gene 51176): -0.888 | BFAR log2FC (Gene 51283): 0.201 | PLAC8 log2FC (Gene 51316): -0.057 | TNFRSF12A log2FC (Gene 51330): -0.619 | ANGPT4 log2FC (Gene 51378): 0.049 | DDX41 log2FC (Gene 51428): -0.065 | GULP1 log2FC (Gene 51454): 1.663 | TRIAP1 log2FC (Gene 51499): -0.858 | ZC3HC1 log2FC (Gene 51530): 0.156 | PIAS4 log2FC (Gene 51588): -0.121 | PIGT log2FC (Gene 51604): 0.362 | TAF9B log2FC (Gene 51616): 0.327 | PTRH2 log2FC (Gene 51651): -0.374 | WWOX log2FC (Gene 51741): -0.808 | SIX4 log2FC (Gene 51804): 0.497 | IL20RA log2FC (Gene 53832): 0.039 | CYCS log2FC (Gene 54205): -0.602 | WNT4 log2FC (Gene 54361): -0.419 | DNAJC10 log2FC (Gene 54431): 0.610 | ZFAND6 log2FC (Gene 54469): 0.333 | ADAMTSL4 log2FC (Gene 54507): -0.373 | DDIT4 log2FC (Gene 54541): -1.201 | ING3 log2FC (Gene 54556): 0.724 | RRN3 log2FC (Gene 54700): -0.333 | AHI1 log2FC (Gene 54806): 0.380 | QRICH1 log2FC (Gene 54870): 0.076 | TMEM161A log2FC (Gene 54929): -0.337 | PHIP log2FC (Gene 55023): 1.071 | USP47 log2FC (Gene 55031): 0.614 | OXR1 log2FC (Gene 55074): 0.376 | UACA log2FC (Gene 55075): 0.829 | IFT57 log2FC (Gene 55081): 0.433 | XKR8 log2FC (Gene 55113): 0.252 | SHQ1 log2FC (Gene 55164): -0.188 | FAIM log2FC (Gene 55179): 0.119 | MAP1S log2FC (Gene 55201): -0.149 | ATAD3A log2FC (Gene 55210): -0.126 | STEAP3 log2FC (Gene 55240): -0.441 | RHOT1 log2FC (Gene 55288): 0.535 | RFK log2FC (Gene 55312): 0.631 | PARL log2FC (Gene 55486): -0.181 | TNFRSF19 log2FC (Gene 55504): -0.091 | CCAR1 log2FC (Gene 55749): 0.552 | PCID2 log2FC (Gene 55795): 0.323 | RNF130 log2FC (Gene 55819): 0.00747 | EAF2 log2FC (Gene 55840): 0.144 | PSENEN log2FC (Gene 55851): -0.013 | BCAP29 log2FC (Gene 55973): 0.083 | TEX11 log2FC (Gene 56159): 0.000672 | CTNNBL1 log2FC (Gene 56259): -0.138 | DIABLO log2FC (Gene 56616): -0.156 | ASAH2 log2FC (Gene 56624): -0.210 | TRIM39 log2FC (Gene 56658): -0.128 | BARHL1 log2FC (Gene 56751): -0.298 | FMN2 log2FC (Gene 56776): 0.00262 | SPHK2 log2FC (Gene 56848): -0.341 | C8orf4 log2FC (Gene 56892): 0.00123 | MEIS3 log2FC (Gene 56917): -0.122 | DUSP22 log2FC (Gene 56940): 0.209 | CIAPIN1 log2FC (Gene 57019): -0.420 | PCBP4 log2FC (Gene 57060): -0.275 | AVEN log2FC (Gene 57099): -0.638 | CAMK1D log2FC (Gene 57118): -0.189 | RTN4 log2FC (Gene 57142): -0.088 | PAK7 log2FC (Gene 57144): 0.451 | BIRC6 log2FC (Gene 57448): 0.144 | TAOK1 log2FC (Gene 57551): 0.399 | SEMA6A log2FC (Gene 57556): 0.047 | SH3RF1 log2FC (Gene 57630): -0.495 | USP28 log2FC (Gene 57646): 0.030 | GPAM log2FC (Gene 57678): -0.052 | CHD8 log2FC (Gene 57680): -0.161 | TRIB3 log2FC (Gene 57761): 0.076 | NGB log2FC (Gene 58157): -0.260 | RBM25 log2FC (Gene 58517): 0.334 | SAV1 log2FC (Gene 60485): 0.586 | PROK2 log2FC (Gene 60675): -0.058 | ELMO2 log2FC (Gene 63916): 0.585 | CIDEC log2FC (Gene 63924): 0.292 | FIGNL1 log2FC (Gene 63979): -0.235 | PERP log2FC (Gene 64065): 0.731 | MOAP1 log2FC (Gene 64112): 0.507 | RRAGC log2FC (Gene 64121): 1.556 | IFIH1 log2FC (Gene 64135): 0.872 | ZMAT3 log2FC (Gene 64393): -0.151 | ATG3 log2FC (Gene 64422): 0.194 | SUDS3 log2FC (Gene 64426): -0.027 | MICAL1 log2FC (Gene 64780): -0.125 | PLEKHG2 log2FC (Gene 64857): -0.516
